Common to all, as to format: cell-based, human
Assay [1] relates to PBMCs of ten HLA-A2+ healthy subjects. The assay can be described thus: In vitro stimulation of peptide-specific T cells in PBMCs of healthy subjects, IFN-γ release by ELISA. Particulars: for healthy subjects in which the peptide induced T cell responses: 10 HLA-A2+ healthy donors, IFN-γ ELISA after 2 weeks of peptide stimulation; for concentrations of IFN-γ in the supernatants: PBMCs stimulated 14 days with peptide 20 μg/mL, response to T2 cells pre-loaded with peptide 5 μg/mL. As to the method: (§1) Ten HLA-A2+ prostate cancer patients and ten HLA-A2+ healthy subjects were enrolled in this study after written informed consent was obtained. All protocols were approved by the Institutional Review Board (IRB) of Baylor College of Medicine before commencing studies. 20 mL of peripheral blood was obtained from each person, and peripheral blood mononuclear cells (PBMCs) were isolated by density gradient centrifugation using Lymphoprep (Nycomed Pharma AS; Oslo, Norway). The freshly isolated PBMCs were cryopreserved for later use in 1 mL freezing medium containing 90% FCS and 10% dimethyl sulfoxide (DMSO) at −140° C. The expression of HLA-A2 molecules on PBMCs obtained from cancer patients and healthy subjects was verified by flow cytometry with FITC-labeled HLA-A2 mAb BB7.2 (BD Pharmingen, San Diego, Calif., USA).
(§2) PBMCs (1×10^5 cells/well) from either healthy subjects or prostate cancer patients were incubated with standard peptide concentrations of 20 μg/mL per peptide in 96-well U-bottom microplates (BD, Franklin Lakes, N.J., USA) in 200 μL of T-cell medium (TCM), consisting of RPMI 1640 (Mediatech, Manassas, Va., USA), 10% human AB serum (Valley Biomedical, Winchester, USA), 50 μM of 2-mercaptoethanol, 100 U/mL of interleukin-2 (IL-2), and 0.1 mM MEM nonessential amino acid solution (Invitrogen, Grand Island, N.Y., USA). Half of the TCM was removed and replaced with fresh TCM containing peptides (20 μg/mL) every 5 days. After 14 days of culture, the cells were harvested and tested for their ability to produce IFN-γ in response to T2 cells (1×10^4 cells/well), which were pre-loaded with either PSGR peptide (5 μg/mL) or a control peptide (an irrelevant HL-A2 binding peptide: NLLTHVESL) as a negative control. After 18 hours of incubation, supernatants were collected, and IFN-γ release was determined by ELISA assay.
(§3) Cytokine release was measured by coating 96-well ELISA plates (Thermo Fisher Scientific; Rochester, N.Y., USA) with 1 μg/mL anti-human IFN-γ (Pierce Biotechnology; Rockford, Ill., USA) overnight at 4° C. The plate was washed six times with PBS containing 0.05% Tween-20 (wash solution) to remove unbound coating antibody, and blocked with 1% BSA/PBS at room temperature for 2 hrs. Afterwards, 50 μL supernatant was added to each well and incubated at room temperature for 1 hr, then 50 μL of 0.5 μg/mL biotinylated anti-human IFN-γ (Pierce Biotechnology; Rockford, Ill., USA) was added and plates were incubated for an additional 1 hr at room temperature. After incubation, plates were washed and incubated for 30 min with Poly-HRP-Streptavidin (Thermo Fisher Scientific; Rochester, N.Y., USA) diluted 1:5000 in PBS/1% BSA. Plates were washed and 100 μL of TMB substrate solution (Sigma-Aldrich Co.; St. Louis, Mo., USA) was added per well. The colorimetric reaction was stopped using 2N H2SO4 and plates were read at 450 nm using an ELISA plate reader.
To determine whether PSGR-reactive T cell precursors are present in healthy subjects, we obtained PBMCs from 10 HLA-A2+ healthy donors and stimulated them in vitro with each of the 21 PSGR-derived peptides containing HLA-A2-binding motif (Table 1). After 2 weeks of peptide stimulation, supernatants from peptide-stimulated T cells were analyzed by ELISA assay to detect IFN-γ release in response to T2 cells pulsed with or without corresponding peptides.

In assay [2] the test system is LNCaP cells. In words: Cytotoxicity of PSGR peptide-specific T cells by LDH assay against LNCaP. Particulars: HLA-A2 positive, PSGR expressing LNCaP; T cells from healthy donors and patients; FIG. 2B. As to the method:
The expression of PSGR mRNA in different cell lines was determined by RT-PCR (A). PSGR derived peptide-specific T cells were tested for cytotoxicity against both PC3 and LNCaP by the LDH assay (B). Data from B are plotted as means±SD. Results are representative of three independent experiments. *P<0.05, versus control.
Cells were stained with anti-CD8 and anti-IFN-γ, then analyzed on a FACScalibur machine (A). PSGR-derived peptide-specific T cells were co-incubated with LNCaP cells alone in medium, or with LNCaP cells in the presence of either anti-HLA-I mAb (W6/32), HLA-II mAb or a control mAb (anti-CD19 mAb). After 4 hours of incubation, the cytotoxicity against LNCaP was determined by the LDH assay (B). Data from B are plotted as means±SD. Results are representative of three independent experiments. *P<0.05, versus controls.
PSGR derived peptide-specific T cells were tested for cytotoxicity against both PC3 and LNCaP by a lactate dehydrogenase (LDH) assay (Promega; Madison, Wis., USA). The assay was performed in accordance with the manufacturer's instructions. LDH release was calculated based on the following formula: Cytotoxicity (%)=(Experimental−Effector Spontaneous−Target Spontaneous LDH release)/(Target Maximum−Target Spontaneous LDH release)×100.
Spontaneous release was determined by using the supernatant of the target cells alone or effector cells alone, and the maximum release was determined by using the supernatant of target cells incubated with a lysis solution included in LDH kit. To determine if T cell recognition is HLA-I restricted, anti-HLA-I, anti-HLA-II, or anti-CD19 mAb (all from ATCC, Manassas, Va., USA) were added into wells at the initiation of the culture.

The subject of assay [3] is PBMCs of HLA-A2+ prostate cancer patients. In words: In vitro stimulation of peptide-specific T cells in PBMCs of prostate cancer patients, IFN-γ release by ELISA. Particulars: PBMCs stimulated in vitro with peptide; for induction of peptide-specific CTLs from PBMCs of prostate cancer patients: Table 3. The method, then:
as §1, §2, §3
Since peptide-specific T cells against PSGR3, PSGR4 and PSGR14 were found in more than 70% of healthy subjects, we reasoned that CTL precursors that recognize these 3 peptides may also be high in PBMCs of prostate cancer patients. To test our hypothesis, we examined whether these three peptide candidates can induce peptide-specific CTLs from the PBMCs of HLA-A2+ prostate cancer patients. PBMCs from prostate cancer patients were collected and stimulated in vitro with PSGR3, PSGR4 or PSGR14 peptides.
A general note: In an ELISA, binding on a coated surface is turned into a signal by an enzyme label.

As for VILANIYLLV (PSGR14), the “healthy subjects in which the peptide induced T cell responses” value (“healthy subjects” below) in assay [1] is given as 7 out of 10. Besides, the “concentrations of IFN-γ in the supernatants” value (“concentrations of IFN-γ” below) is 471 pg/mL in assay [1] (healthy subject #1); 0 pg/mL in assay [1] (healthy subject #2); 115 pg/mL in assay [1] (healthy subject #3); 0 pg/mL in assay [1] (healthy subject #4); 124 pg/mL in assay [1] (healthy subject #5); 296 pg/mL in assay [1] (healthy subject #6). For the same sequence, the “concentrations of IFN-γ” value in assay [1] (healthy subject #7) was 843 pg/mL; in assay [1] (healthy subject #8), 0 pg/mL; in assay [1] (healthy subject #9), 346 pg/mL; in assay [1] (healthy subject #10) it was 854 pg/mL; in assay [3] (prostate cancer patient #2) it was 344 pg/mL; in assay [3] (prostate cancer patient #3), 116 pg/mL. Further, the “concentrations of IFN-γ” value in assay [3] (prostate cancer patient #12) was 272 pg/mL; in assay [3] (prostate cancer patient #13) it was 23 pg/mL; in assay [3] (prostate cancer patient #14), 0 pg/mL; in assay [3] (prostate cancer patient #15), 24 pg/mL; in assay [3] (prostate cancer patient #16) it was 0 pg/mL; in assay [3] (prostate cancer patient #17) it was 100 pg/mL. Further, the figures for the “concentrations of IFN-γ” value in assay [3] (prostate cancer patient #22) and in assay [3] (prostate cancer patient #25) were 8 pg/mL and 11 pg/mL, respectively. Besides, in assay [2], the “recognition and killing of LNCaP by peptide-specific T cells” value (from here on “recognition and killing of LNCaP”) is “could recognize and kill”. In addition, in assay [3], the “induction of peptide-specific CTLs from PBMCs of prostate cancer patients” value (“induction of peptide-specific CTLs” for short) is “indeed induced peptide-specific CTLs”.
On to WLAFPLCSL (PSGR4), for which the “healthy subjects” value in assay [1] is 7 out of 10. For the same sequence, the “concentrations of IFN-γ” value in assay [1] (healthy subject #1) came to 302 pg/mL; in assay [1] (healthy subject #2), 152 pg/mL; in assay [1] (healthy subject #3), 457 pg/mL; in assay [1] (healthy subject #4), 0 pg/mL; in assay [1] (healthy subject #5), 407 pg/mL; in assay [1] (healthy subject #6) it was 226 pg/mL. Moreover, the “concentrations of IFN-γ” value came to 847 pg/mL in assay [1] (healthy subject #7); 0 pg/mL in assay [1] (healthy subject #8); 0 pg/mL in assay [1] (healthy subject #9); 459 pg/mL in assay [1] (healthy subject #10); 451 pg/mL in assay [3] (prostate cancer patient #2); 351 pg/mL in assay [3] (prostate cancer patient #3). Further, the “concentrations of IFN-γ” value was found to be 0 pg/mL in assay [3] (prostate cancer patient #12); 301 pg/mL in assay [3] (prostate cancer patient #13); 309 pg/mL in assay [3] (prostate cancer patient #14); 70 pg/mL in assay [3] (prostate cancer patient #15); 6.7 pg/mL in assay [3] (prostate cancer patient #16); 102 pg/mL in assay [3] (prostate cancer patient #17). Besides, the “concentrations of IFN-γ” value stood at 56 pg/mL in assay [3] (prostate cancer patient #22) and 27 pg/mL in assay [3] (prostate cancer patient #25). Moreover, the “recognition and killing of LNCaP” value in assay [2] is “could recognize and kill”. Moreover, the “induction of peptide-specific CTLs” value in assay [3] is given as “indeed induced peptide-specific CTLs”.
In the case of ILANIYLLV (PSGR3), the “healthy subjects” value in assay [1] is on record as 7 out of 10. Besides, the “concentrations of IFN-γ” value in assay [1] (healthy subject #1) amounted to 127 pg/mL; in assay [1] (healthy subject #2), 398 pg/mL; in assay [1] (healthy subject #3), 393 pg/mL; in assay [1] (healthy subject #4), 768 pg/mL; in assay [1] (healthy subject #5), 227 pg/mL; in assay [1] (healthy subject #6) it was 183 pg/mL. Moreover, the “concentrations of IFN-γ” value in assay [1] (healthy subject #7) was found to be 645 pg/mL; in assay [1] (healthy subject #8) it was 0 pg/mL; in assay [1] (healthy subject #9), 394 pg/mL; in assay [1] (healthy subject #10), 0 pg/mL; in assay [3] (prostate cancer patient #2) it was 525 pg/mL; in assay [3] (prostate cancer patient #3), 503 pg/mL. Besides, the “concentrations of IFN-γ” value in assay [3] (prostate cancer patient #12) is 326 pg/mL; in assay [3] (prostate cancer patient #13), 217 pg/mL; in assay [3] (prostate cancer patient #14), 0 pg/mL; in assay [3] (prostate cancer patient #15), 282 pg/mL; in assay [3] (prostate cancer patient #16) it was 35 pg/mL; in assay [3] (prostate cancer patient #17), 156 pg/mL. For the same sequence, the “concentrations of IFN-γ” value in assay [3] (prostate cancer patient #22) was determined as 103 pg/mL; in assay [3] (prostate cancer patient #25) it was 22 pg/mL. Besides, the “recognition and killing of LNCaP” value in assay [2] is “could recognize and kill”. In addition, in assay [3], the “induction of peptide-specific CTLs” value was “indeed induced peptide-specific CTLs”.

Values taken from patent US10722563B2, “Prostate-specific tumor antigens and uses thereof” (SHENZHEN INNOVATION IMMUNOTECHNOLOGY CO., LTD., priority 2012, dated 2020).
